From patent US20230218559A1, “Compositions and Methods for Treating Aging and Age-Related Diseases and Symptoms” (The Regents of the University of California, priority 2014, published 2023)

How the values were obtained:
mTOR [1] = test: Assay for mammalian TOR (mTOR) pathway activity; format: cell-based, human; details: U87 cells
Text: Specific antibodies used: P-S6K T389 (Cell Signaling Technology, 9234), S6K (Cell Signaling Technology, 9202S), P-4E-BP1 S65 (Cell Signaling Technology, 9451S), 4E-BP1 (Cell Signaling Technology, 9452S), P-AKT S473 (Cell Signaling Technology, 4060S), AKT (Cell Signaling Technology, 4691S), P-ULK1 S757 (Cell Signaling Technology, 6888), ULK1 (Cell Signaling Technology, 4773S), and GAPDH (Santa Cruz Biotechnology, 25778).

[2] = tested on: neonatal rat cardiomyocytes; test: Isoproterenol/phenylephrine-induced hypertrophy in isolated neonatal cardiomyocytes; format: cell-based; details: 200 μM
Experimental: Cardiomyocytes of neonatal rats were isolated by collagenase digestion and cultured overnight in DMEM containing 10% fetal calf serum (FCS), and then culture medium was changed to serum-free high glucose insulin-transferrin-sodium selenite (ITS). Hypertrophy of cardiomyocytes was induced by treating the cells with 1 mM isoproterenol (ISO) or phenylephrine (PE) for 48 hours.

WI-38 cells = test: Assay for ATP levels in normal human fibroblasts; format: cell-based; details: 2 hours
Experimental: Normal human diploid fibroblast WI-38 (ATCC, CCL-75) cells were seeded in 96-well plates at 2×10^4 cells per well. […] ATP levels were measured using the CellTiter-Glo luminescent ATP assay (Promega, G7572); luminescence was read using Analyst HT (Molecular Devices). In parallel, identically treated cells were lysed in M-PER (Thermo Scientific, 78501) to obtain protein concentration by BCA Protein Assay kit (Pierce, 23223). ATP levels were normalized to protein content. Statistical analysis was performed using GraphPad Prism (unpaired t-test).

ATP synthase = target: T1, ATP synthase (Mus musculus, UniProt P56480); test: ATP synthase enzyme inhibition kinetics; format: biochemical
T1 construct: Mitochondria were isolated from mouse liver as described above; from tissue; host or cells: isolated mouse liver mitochondria
Experimental: ATP synthesis enzyme inhibition kinetic analysis was performed using isolated mitochondria. Mitochondria were isolated from mouse liver as described above. The final mitochondrial pellet was resuspended in MAS buffer supplemented with 5 mM sodium ascorbate (Sigma, A7631) and 5 mM TMPD (Sigma, T7394).
ATP synthesis was monitored by the increase in luminescence over time by a luminometer (Analyst HT, Molecular Devices). ATP synthase-independent ATP formation, derived from the oligomycin-insensitive luminescence, was subtracted as background. The initial velocity of ATP synthesis was calculated from the slope of the first 3 minutes of the reaction, before the velocity begins to decrease. Enzyme inhibition kinetics was analyzed by nonlinear regression least squares fit using GraphPad Prism.

AMPK = AMPK (T172) phosphorylation by Western blotting; format: cell-based, human; details: WI-38 cells; higher concentration of octyl α-KG
Experimental: Western blotting was performed with specific antibodies against P-AMPK T172 (Cell Signaling Technology, 2535S) and AMPK (Cell Signaling Technology, 2603S). […] Number of GFP::LGG-1 containing puncta was quantitated using ImageJ. Bars indicate the mean. […] HEK-293 (Panel d) or HeLa (Panel e) cells were lysed in M-PER buffer (Thermo Scientific, 78501) with the addition of protease inhibitors (Roche, 11836153001) and phosphatase inhibitors (50 mM NaF, 10 mM β-glycerophosphate, 5 mM sodium pyrophosphate, 2 mM Na3VO4). Protein concentration of the lysate was measured by BCA Protein Assay kit (Pierce, 23227). […] Pronase (Roche, 10165921001) digestions were performed for 20 minutes at room temperature, and stopped by adding SDS loading buffer and immediately heating at 95° C. for 5 minutes (for Panel d) or 70° C. for 10 minutes (for Panel e). Samples were subjected to SDS-PAGE on 4-12% Bis-Tris gradient gel (Invitrogen, NP0322BOX) and Western blotted with specific antibodies against ATP5B (Santa Cruz, sc58618), mTOR (Cell Signaling Technology, 2972), or GAPDH (Ambion, AM4300). ImageJ was used to quantify the mTOR/GAPDH and ATP5B/GAPDH ratios.

U87 cells [3] = test: Assay for ATP levels in U87 cells; format: cell-based, human; details: mitochondrial oxidative phosphorylation conditions, 2 hours
Experimental: For 2-HG experiments, U87 cells were seeded in 96-well plates at 2×10^4 cells per well and treated with indicated compound for 2 hours in triplicate. ATP levels were measured using the CellTiter-Glo luminescent ATP assay (Promega, G7572); luminescence was read using Analyst HT (Molecular Devices). […] Statistical analysis was performed using GraphPad Prism (unpaired t-test).

[4] = target: mitochondrial ATP synthase (Complex V) (Mus musculus, UniProt P56480); test: Mice fed octyl α-KG in chow; heart mitochondria OCR
Experimental: The mice were sacrificed, hearts harvested, and mitochondria isolated. The oxygen consumption rate (OCR) was measured using a Seahorse XF-24 Analyzer (Seahorse Bioscience).

mammalian cells = test: Oxygen consumption rate in cells (Seahorse XF-24); format: cell-based; details: treated cells, 1 hour
Experimental: OCR measurements were made using a Seahorse XF-24 analyzer (Seahorse Bioscience) (Wu, et al. Am J Physiol Cell Physiol 292, C125-136 (2007)). […] Oxygen consumption rates were measured 3 times under basal conditions and normalized to protein concentration per well. Statistical analysis was performed using GraphPad Prism.

U87 cells [5] = test: Cell growth and viability assays in U87 cells; format: cell-based, human
Experimental: IDH1(R132H) mutant or IDH1(WT) expressing U87 cells were as reported (Li, et al. Neuro Oncol 15, 57-68). […] All the cells were cultured at 37° C. and 5% CO2. Cells were transfected with indicated siRNA using Thermo Scientific DharmaFECT Transfection Reagent 1 by following the manufacturer's instructions.
Cells were seeded in 12-well plates and after overnight incubation were treated with indicated concentrations of each compound. After harvesting, cells were stained by Acridine Orange (AO) and DAPI. Cell number and viability were measured based on AO and DAPI fluorescence measured by NC3000 (Chemometec) following the manufacturer's instructions.

Complex V = target: T2, Complex V (Bos taurus, UniProt P00829); test: Complex V activity assay (MitoTox OXPHOS kit); format: biochemical, bovine
T2 construct: from bovine heart mitochondria; purchased Abcam ab109907; host or cells: bovine heart mitochondria
Experimental: Complex V activity was assayed using the MitoTox OXPHOS Complex V Activity Kit (Abcam, ab109907). Vehicle (H2O) or α-KG was mixed with the enzyme prior to the addition of phospholipids. […] Relative Complex V activity was compared to vehicle. Oligomycin (Sigma, O4876) was used as a positive control for the assay.

DBA2/J female mice = test: Isoproterenol-induced hypertrophy and heart failure in mice; format: in vivo, mouse; details: ISO plus octyl α-KG, 3 weeks, echocardiography; ISO+octanol 49.2%±1.9
Experimental: Hypertrophy and heart failure were induced by chronic infusion of isoproterenol for 3 weeks at a dose of 30 μg per gram bodyweight per day using osmotic mini-pumps (Alzet, model 1004). DBA2/J female mice at 8 weeks old were used for this study. […] ISO-induced cardiac hypertrophy and cardiomyopathy were determined at the end of experiment by assessing heart size and heart to body weight ratio.
More importantly, cardiac output was assessed and the cardiac ejection fractions were determined by echocardiography. The cardiac EF for the basal levels before the treatment is 55.1%±2.6 (n=14).

ATP5B = target: T3, ATP5B (Homo sapiens, UniProt P06576); test: DARTS (drug affinity responsive target stability) with Western blotting; format: binding; details: human cell lysates, Pronase digestion
T3 construct: HeLa cells were lysed in M-PER buffer; endogenous in cells; host or cells: HeLa (alpha-KG); U87 (2-HG)
T3 sequence (P06576 48-529): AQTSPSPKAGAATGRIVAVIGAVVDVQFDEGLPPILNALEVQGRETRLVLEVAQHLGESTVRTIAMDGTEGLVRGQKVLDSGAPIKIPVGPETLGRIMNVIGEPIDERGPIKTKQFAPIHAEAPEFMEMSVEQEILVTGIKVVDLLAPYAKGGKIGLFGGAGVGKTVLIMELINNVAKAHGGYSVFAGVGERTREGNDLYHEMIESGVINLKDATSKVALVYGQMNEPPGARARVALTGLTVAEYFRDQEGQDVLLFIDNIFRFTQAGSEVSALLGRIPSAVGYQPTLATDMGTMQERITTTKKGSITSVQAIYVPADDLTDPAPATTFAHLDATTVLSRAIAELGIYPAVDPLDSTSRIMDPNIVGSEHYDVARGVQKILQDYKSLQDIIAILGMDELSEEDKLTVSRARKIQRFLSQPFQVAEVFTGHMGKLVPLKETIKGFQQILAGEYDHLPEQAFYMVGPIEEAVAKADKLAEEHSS
Experimental: Target identification using DARTS was conducted in accordance with methods know in the art. […] The resulting digests were separated by SDS-PAGE and visualized using SYPRO Ruby Protein Gel Stain (Invitrogen, S12000).
GAPDH (Ambion, AM4300) was used as a negative control.
For 2-HG experiments, DARTS was performed as described above.

ATP-2 = target: T4, ATP-2 (Caenorhabditis elegans, UniProt P46561); test: DARTS using C. elegans lysate; format: binding; details: worm lysate
T4 construct: from tissue; host or cells: lysate of whole wild-type C. elegans
T4 sequence (P46561 whole entry): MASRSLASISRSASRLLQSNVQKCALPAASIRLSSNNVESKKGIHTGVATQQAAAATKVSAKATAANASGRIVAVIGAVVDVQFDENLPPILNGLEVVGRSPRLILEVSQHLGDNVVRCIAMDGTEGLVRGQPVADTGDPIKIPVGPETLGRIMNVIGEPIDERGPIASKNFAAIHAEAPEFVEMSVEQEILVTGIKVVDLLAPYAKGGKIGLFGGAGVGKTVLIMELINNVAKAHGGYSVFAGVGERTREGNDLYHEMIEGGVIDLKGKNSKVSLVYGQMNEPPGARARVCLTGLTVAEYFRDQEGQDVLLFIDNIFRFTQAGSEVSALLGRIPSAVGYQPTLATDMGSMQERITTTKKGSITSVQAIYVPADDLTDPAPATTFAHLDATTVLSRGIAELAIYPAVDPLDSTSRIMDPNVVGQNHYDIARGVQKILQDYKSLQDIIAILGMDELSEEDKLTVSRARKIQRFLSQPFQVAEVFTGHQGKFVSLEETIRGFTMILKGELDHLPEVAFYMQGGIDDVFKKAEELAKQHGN
Experimental: For DARTS using C. elegans (FIG. 6, Panel a), wild-type animals of various ages were grown on NGM/OP50 plates, washed 4 times with M9 buffer, and immediately placed in the −80° C. freezer. […] All steps were performed on ice or at 4° C. to help prevent premature protein degradation. TNC buffer (50 mM Tris-HCl pH 8.0, 50 mM NaCl, 10 mM CaCl2) was added to the worm lysates.

Complex IV = tested on: T5, Complex IV; test: Complex IV activity assay (MitoTox OXPHOS kit); format: biochemical, bovine; details: relative to vehicle (H2O)
T5 construct: from bovine heart mitochondria; purchased Abcam ab109906; host or cells: bovine heart mitochondria
Experimental: Complex IV activity was assayed using the MitoTox OXPHOS Complex IV Activity Kit (Abcam, ab109906).

C. elegans [6] = test: Assay for ATP levels in C. elegans; format: in vivo, Caenorhabditis elegans; details: 8 mM; day 2, P=0.969; day 8, P=0.012
Experimental: Assay for ATP levels in C. elegans. […] ATP levels were normalized to number of worms. Statistical analysis was performed using Microsoft Excel (t-test, two-tailed, two-sample unequal variance).

C. elegans [7] = test: Oxygen consumption rate in living C. elegans; format: in vivo, Caenorhabditis elegans; details: worms, 8 mM, day 2 of adulthood
Experimental: OCR was assessed on day 2 of adulthood. […] Oxygen consumption rates were measured 7 times under basal conditions and normalized to the number of worms counted per well. The experiment was repeated twice. Statistical analysis was performed using Microsoft Excel (t-test, two-tailed, two-sample unequal variance).

pyruvate kinase = test: Coupling-enzyme control of SMP ATPase assay; format: biochemical; details: up to 10 mM, external ADP added
Experimental: (§1) The SMP ATPase activity was assayed using the Complex V Activity Buffer as above. The production of ADP is coupled to the oxidation of NADH to NAD^+ through pyruvate kinase and lactate dehydrogenase. […] The absorbance decrease of NADH at 340 nm correlates to ATPase activity.

lactate dehydrogenase = test: Coupling-enzyme control of SMP ATPase assay; format: biochemical; details: up to 10 mM, external ADP added
Experimental: as §1

mTOR [8] = target: T6, mTOR (Homo sapiens, UniProt P42345); test: DARTS for TOR in HEK-293 / HeLa lysates; format: binding; details: HEK-293 or HeLa lysates
T6 construct: HEK-293 (Panel d) or HeLa (Panel e) cells were lysed in M-PER buffer; endogenous in cells; host or cells: HEK-293; HeLa
Text: Number of GFP::LGG-1 containing puncta was quantitated using ImageJ. Bars indicate the mean. […] ImageJ was used to quantify the mTOR/GAPDH and ATP5B/GAPDH ratios.

CCCCCCCCOC(=O)C(=O)CCC(=O)O [octyl α-KG, octyl α-ketoglutarate]
phosphorylation of S6K (T389) (mTOR [1]): decreased | phosphorylation of mTOR substrates (mTOR [1]): decreased | ISO- and PE-induced overexpression of ANF and BNP [2]: suppressed | ISO-induced hypertrophy ([2]; 1 mM isoproterenol, 48 hours): completely abolished | ATP levels (WI-38 cells): reduced | apparent Vmax of ATP synthase (ATP synthase; 200 μM octyl α-KG, octanol vehicle 53.9): 26.7 | mode of ATP synthase inhibition (ATP synthase; α-KG released from octyl α-KG): uncompetitive inhibition | P-AMPK (T172) (AMPK): increased | ATP content (U87 cells [3]): decreased | state 3 respiration of heart mitochondria ([4]; mice fed 1.5 mg/g body weight in chow for one week, versus octanol control mice): lower | physiological or behavioral abnormality ([4]; mice, 1.5 mg/g body weight in chow, after 5 days feeding): no abnormality | oxygen consumption rates (mammalian cells): Decreased | viability upon glucose starvation (U87 cells [5]; 400 μM and 800 μM): decreased | growth rate (U87 cells [5]; glucose medium, to a lesser extent, not shown): reduced | growth rate (U87 cells [5]; glucose-free medium, 400 μM and 800 μM): decreased growth rate | reversibility of ATP synthase inhibition (Complex V; α-KG released from octyl α-KG, not shown): reversible | cardiac ejection fraction (DBA2/J female mice): 53.8%±2.3

O=C(O)CCC(=O)C(=O)O [α-KG, α-ketoglutarate]
binding to ATP5B by DARTS (ATP5B): binding specifically | ATP-2 protein protection from Pronase digestion (ATP-2): protection | Complex IV activity (Complex IV): does not affect | ATP levels (C. elegans [6]): reduced | oxygen consumption rates (C. elegans [7]): Decreased | activity of pyruvate kinase (pyruvate kinase): did not affect | activity of lactate dehydrogenase (lactate dehydrogenase): did not affect | binding to TOR by DARTS (mTOR [8]): does not bind | activity of Complex V (Complex V; bovine heart mitochondria): inhibits
